Experimental findings from US7405228B2, “Antibacterial cyano-(substituted)-methylenepiperidinophenyl oxazolidinones targeting multiple ribonucleoprotein sites” (Wockhardt Limited, priority 2002, dated 2008) are described below.

≈ marks a conversion by molar mass, not a printed value.

Holding throughout (format): cell-based
One experiment deals with S. aureus MRSA-32 LNZR. The experiment in a line: MIC determination, linezolid resistant S. aureus MRSA-32 LNZR. Conditions: Staphylococcus aureus, 24 h, read-out: MIC MRSA 32 LNZR. The method, then:
(§1) Infecting doses of organisms given by intraperitoneal route in 5% hog gastric mucin were 10^3-10^4 CFU (colony forming units)/animal for SPN 6303 and 10^8 CFU/animal for MRSA-32. In case of MRSA-32, Linezolid was administered by oral route, 1 and 4 h post infection, BID (twice a day) for 1 day and for SPN 6303 BID for 2 days. […] MICs of Methicillin Resistant Staphylococcus aureus-32 Linezolid resistant (MRSA-32 LNZR), S. pneumoniae 744 Linezolid resistant (SPN 744 LNZR) and parent Linezolid sensitive strains MRSA-32 and SPN 6303 were determined for Linezolid by NCCLS agar dilution method.
(§2) Cultures were further diluted 1:10 in Mueller Hinton broth. Using Denley's mutipoint inoculator, 10^4 cells were deposited on Mueller Hinton agar (Difco) containing range of 2 fold dilutions of test compounds. […] MIC is defined as minimum drug concentration that inhibits test organisms. For determining MIC of test compounds against Streptococcus pneumoniae, Mueller Hinton agar containing 5% sheep blood was employed.

The next experiment has as its system SPN 744 LNZR. The experiment in a line: MIC determination, linezolid resistant SPN 744 LNZR. Conditions: Streptococcus pneumoniae, read-out: MIC SPN744 LNZR. How it is done:
as §1, §2

The test system of another experiment is E. faecium 367 LNZR. The experiment in a line: MIC determination, linezolid resistant E. faecium 367 LNZR. Conditions: Enterococcus faecium, read-out: MIC E. faecium 367 LNZR. The method, then: E. faecium ATCC 19434 strain at a cell density of 10^6/ml was inoculated in Mueller Hinton broth medium containing Linezolid at a concentration of 5 and 7.5 mcg/ml. The stationary culture was incubated at 37° C. and inspected at every 24 hours to assess the formation of turbidity due to the onset of bacterial growth. […] A 50 microliter sample of turbid flask was plated on Mueller Hinton agar medium incorporated with linezolid at 7.5 mcg/ml. The agar plates were incubated for 48 hours at 37° C. for the formation of discrete colonies of linezolid-resistant strain of E. faecium (E. faecium 367 LNZR). MICs of resistant mutant E. faecium 367 LNZR and parent strain E. faecium ATCC 19434 were determined for linezolid by NCCLS method.
as §2

The test system of the next experiment is MRSA 032. The experiment in a line: MIC determination, linezolid sensitive MRSA 032 (MRSA-32). The note with it: Staphylococcus aureus, read-out: MIC MRSA 32. The method, then: as §1, §2
For the next experiment, the system named is SPN 49619. The experiment in a line: MIC determination, linezolid sensitive SPN 49619. Conditions: Streptococcus pneumoniae; linezolid sensitive strain, Table 3.

Take `COC(=S)NC[C@H]1CN(c2ccc(N3CC/C(=C\C#N)C(C)C3)c(F)c2)C(=O)O1` (stereo partly drawn) [Example 67, (S)-N-{3-[4-(4-cyanomethylidene-3-methylpiperidin-1-yl)-3-fluorophenyl]-2-oxo-oxazolidin-5-ylmethyl}-methylthiocarbamate]: the MIC in the experiment with S. aureus MRSA-32 LNZR is 12.5 µg/mL (≈ 29.9 µM); with SPN 744 LNZR, 6.25 µg/mL (≈ 14.9 µM); in the experiment on E. faecium 367 LNZR, 3.12 µg/mL (≈ 7.46 µM); in the experiment on MRSA 032, 0.8 µg/mL (≈ 1.91 µM); in the experiment with SPN 49619, 0.4 µg/mL (≈ 0.956 µM).

Turning to `CC(=O)NC[C@H]1CN(c2ccc(N3CC/C(=C/C#N)C(F)C3)c(F)c2)C(=O)O1` (stereo partly drawn) [56 (Z), Z-(S)-N-{3-[4-(4-cyanomethylidene-3-fluoropiperidin-1-yl)-3-fluorophenyl]-2-oxo-oxazolidin-5-ylmethyl}-acetamide], the MIC was 25 µg/mL (≈ 64 µM) with S. aureus MRSA-32 LNZR; 12.5 µg/mL (≈ 32 µM) with SPN 744 LNZR; 6.25 µg/mL (≈ 16 µM) in the experiment on E. faecium 367 LNZR; 0.8 µg/mL (≈ 2.05 µM) in the experiment on MRSA 032; 0.8 µg/mL (≈ 2.05 µM) in the experiment with SPN 49619.

Regarding `CSC(C#N)=C1CCN(c2ccc(N3C[C@H](CNC(C)=O)OC3=O)cc2F)CC1` [Example 115, (S)-N-{3-[4-(4-(1-cyano-1-methylmercapto-methylidene)-piperidin-1-yl)-3-fluorophenyl]-2-oxo-oxazolidin-5-ylmethyl}-acetamide], the MIC in the experiment with S. aureus MRSA-32 LNZR came to 12.5 µg/mL (≈ 29.9 µM); in the experiment with SPN 744 LNZR, 6.25 µg/mL (≈ 14.9 µM); in the experiment with E. faecium 367 LNZR, 3.12 µg/mL (≈ 7.46 µM); in the experiment on MRSA 032, 0.8 µg/mL (≈ 1.91 µM); with SPN 49619 it was 0.8 µg/mL (≈ 1.91 µM).

As to `CC1CN(c2ccc(N3C[C@H](CNC(N)=S)OC3=O)cc2F)CC/C1=C\C#N` (stereo partly drawn) [Example 68, (S)-N-{3-[4-(4-cyanomethylidene-3-methylpiperidin-1-yl)-3-fluorophenyl]-2-oxo-oxazolidin-5-ylmethyl}-thiocarbamide], the MIC in the experiment with S. aureus MRSA-32 LNZR is 6.25 µg/mL (≈ 15.5 µM); with SPN 744 LNZR, 3.12 µg/mL (≈ 7.73 µM); in the experiment on E. faecium 367 LNZR, 3.12 µg/mL (≈ 7.73 µM); in the experiment on MRSA 032 it was 0.4 µg/mL (≈ 0.991 µM); against SPN 49619 it was 0.4 µg/mL (≈ 0.991 µM).

Regarding `CCC(C#N)=C1CCN(c2ccc(N3C[C@H](CNC(C)=S)OC3=O)cc2F)CC1` [Example 93, (S)-N-{3-[4-(4-(1-cyanopropylidene)-piperidin-1-yl)-3-fluorophenyl]-2-oxo-oxazolidin-5-ylmethyl}-thioacetamide], the MIC amounted to 6.25 µg/mL (≈ 15 µM) in the experiment with S. aureus MRSA-32 LNZR; 3.12 µg/mL (≈ 7.49 µM) in the experiment with SPN 744 LNZR; 1.56 µg/mL (≈ 3.75 µM) in the experiment on E. faecium 367 LNZR; 0.4 µg/mL (≈ 0.96 µM) with MRSA 032; 0.2 µg/mL (≈ 0.48 µM) in the experiment on SPN 49619.

On to `CC(=S)NC[C@H]1CN(c2ccc(N3CCC(=C(C)C#N)CC3)c(F)c2)C(=O)O1` [Example 84, (S)-N-{3-[4-(4-(1-cyanoethylidene)-piperidin-1-yl)-3-fluorophenyl]-2-oxo-oxazolidin-5-ylmethyl}-thioacetamide], for which the MIC with S. aureus MRSA-32 LNZR came to 1.56 µg/mL (≈ 3.88 µM); in the experiment with SPN 744 LNZR, 1.56 µg/mL (≈ 3.88 µM); in the experiment with E. faecium 367 LNZR, 1.56 µg/mL (≈ 3.88 µM); in the experiment with MRSA 032, 0.4 µg/mL (≈ 0.994 µM); in the experiment on SPN 49619, 0.2 µg/mL (≈ 0.497 µM).

As to `CC(=O)NC[C@H]1CN(c2ccc(N3CC/C(=C\C#N)C(F)C3)c(F)c2)C(=O)O1` (stereo partly drawn) [56 (E), E-(S)-N-{3-[4-(4-cyanomethylidene-3-fluoropiperidin-1-yl)-3-fluorophenyl]-2-oxo-oxazolidin-5-ylmethyl}-acetamide], the MIC in the experiment with S. aureus MRSA-32 LNZR was 12.5 µg/mL (≈ 32 µM); with SPN 744 LNZR, 6.25 µg/mL (≈ 16 µM); in the experiment with E. faecium 367 LNZR it was 6.25 µg/mL (≈ 16 µM); in the experiment on MRSA 032 it was 0.8 µg/mL (≈ 2.05 µM); in the experiment with SPN 49619 it was 0.8 µg/mL (≈ 2.05 µM).

Turning to `CCC(C#N)=C1CCN(c2ccc(N3C[C@H](CNC(C)=O)OC3=O)cc2F)CC1` [Example 89, (S)-N-{3-[4-(4-(1-cyanopropylidene)-piperidin-1-yl)-3-fluorophenyl]-2-oxo-oxazolidin-5-ylmethyl}-acetamide], the MIC in the experiment on S. aureus MRSA-32 LNZR stood at 25 µg/mL (≈ 62.4 µM); with SPN 744 LNZR, 12.5 µg/mL (≈ 31.2 µM); in the experiment on E. faecium 367 LNZR, 6.25 µg/mL (≈ 15.6 µM).

In the case of `N#C/C=C1\CCN(c2ccc(N3C[C@H](CNC(=O)C(F)F)OC3=O)cc2F)CC1F` (stereo partly drawn) [Example 57, (S)-N-{3-[4-(4-cyanomethylidene-3-fluoropiperidin-1-yl)-3-fluorophenyl]-2-oxo-oxazolidin-5-ylmethyl}-difluoroacetamide], the MIC in the experiment with S. aureus MRSA-32 LNZR amounted to 12.5 µg/mL (≈ 29.3 µM); with SPN 744 LNZR it was 6.25 µg/mL (≈ 14.7 µM); in the experiment with E. faecium 367 LNZR, 6.25 µg/mL (≈ 14.7 µM).

In general, MIC refers to the least concentration at which growth counts as inhibited.
